Where a name gives a salt, the structure may show the parent alone.
Target: T1, 5-HT3 receptor (Rattus norvegicus, UniProt P35563)
T1 construct: from tissue; host or cells: whole living rat (male Wistar, urethane-anesthetized); endogenous receptor
T1 sequence (P35563 24-483): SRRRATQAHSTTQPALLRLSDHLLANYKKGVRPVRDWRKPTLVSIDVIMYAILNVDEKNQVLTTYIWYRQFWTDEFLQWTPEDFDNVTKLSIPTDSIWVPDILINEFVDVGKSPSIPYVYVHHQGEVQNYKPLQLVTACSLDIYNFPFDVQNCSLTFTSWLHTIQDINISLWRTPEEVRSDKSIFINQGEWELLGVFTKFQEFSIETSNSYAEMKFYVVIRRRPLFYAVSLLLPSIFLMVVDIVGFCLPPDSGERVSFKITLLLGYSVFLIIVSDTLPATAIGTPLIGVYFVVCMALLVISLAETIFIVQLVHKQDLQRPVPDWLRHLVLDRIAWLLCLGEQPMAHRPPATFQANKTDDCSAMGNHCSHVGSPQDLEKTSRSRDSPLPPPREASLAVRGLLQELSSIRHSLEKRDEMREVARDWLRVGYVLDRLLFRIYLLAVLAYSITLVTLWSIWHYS
Experiment: Inhibitory effect on the Bezold-Jarish's reflex induced in anesthetized rats with 5-HT (5HT3 receptor antagonistic effect)
Format: in vivo, rat (male Wister strain)
Details: iv, i.v. test compound, 5-HT 8 μg/kg i.v., urethane-anesthetized male Wister rats, dose giving 50% inhibition, read-out: B-J Reflex Inhibition (ID50)
Method: 1) 5HT3 Receptor Antagonistic Effect
The antagonistic activity of the compounds of the invention to 5-HT3 receptor was evaluated as to the inhibitory effect on the Bezold-Jarish's reflex induced in anesthetized rats with 5-HT as follows.
Male Wister strain rats (300-400 g weight) were anesthetized by peritoneal injection of urethane (1.25 g/kg) and the heart rate was monitored from an electrocardiograph. Rats were intravenously injected with physiological saline (0.5 ml/kg) and 5-HT (8 μg/kg) solution (0.5 ml/kg) in physiological saline at five minutes interval and the change in the heart rate was recorded (A). Another group of rats were intravenously injected with a test compound and 5-HT solution in the same manner as the above at five minutes interval and the change in the heart rate was recorded (B). The percent inhibition of 5-HT-induced Bezold-Jarish's reflex was calculated as follows.
Inhibition (%)=(1-B/A)×100
In the Table, ID50 is a dose of a compound (I) of the invention which gives a 50% inhibition. The compound number in Table 4 correspond to those in Tables 1-3.

SMILES	ED50 [µg/kg]
CCCn1nc(C(=O)NC2CC3CCC(C2)N3C)c(=O)c2cccc(F)c21 (stereo not drawn) [Compound 102, 8-Fluoro-N-(endo-8-methyl-8-azabicyclo[3.2.1]oct-3-yl)-1-propyl-1,4-dihydro-4-oxocinnoline-3-carboxamide hydrochloride]	0.2
CCCn1nc(C(=O)NC2CC3CCC(C2)N3C)c(=O)c2ccccc21 (stereo not drawn) [Compound 86, N-(endo-8-methyl-8-azabicyclo[3.2.1]oct-3-yl)-1-propyl-1,4-dihydro-4-oxocinnoline-3-carboxamide hydrochloride]	0.15
CCn1nc(C(=O)NC2CC3CCC(C2)N3C)c(=O)c2ccccc21 (stereo not drawn) [Compound 76, N-(endo-8-methyl-8-azabicyclo[3.2.1]oct-3yl)-1-ethyl-1,4-dihydro-4-oxocinnoline-3-carboxamide hydrochloride]	0.3
